This note sets out measurements from PubChem BioAssay (NCI).

Among the test systems are OVCAR-3 ovarian; SK-MEL-2 melanoma; U251 CNS; TK-10 renal; HL-60(TB) leukemia; SF-539 CNS; A549 NSCLC; SF-295 CNS; HCC-2998 colon; M14 melanoma.
What all share (experiment): NCI-60 cell line screen, 48 h

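How tested: cells in 96-well plates exposed to compound for 48 hours at five concentrations. GI50 marks 50% less growth. TGI marks complete inhibition of growth.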

As to `COc1cc2c(cc1OCCCCCn1c3ccccc3c3ccccc31)N=C[C@@H]1CCCN1C2=O`, the GI50 with OVCAR-3 ovarian is 1.88 µM; in the test with SK-MEL-2 melanoma, 1.67 µM; with U251 CNS, 1.59 µM; in the test on TK-10 renal it was 2.25 µM; with HL-60(TB) leukemia, 1.72 µM; in the test with SF-539 CNS, 1.85 µM. Also, the results for the GI50 in the test on A549 NSCLC, in the test on SF-295 CNS and in the test on HCC-2998 colon were 1.57 µM, 2.15 µM and 1.71 µM, respectively. For the same compound, the TGI with OVCAR-3 ovarian worked out at 3.57 µM; in the test with SK-MEL-2 melanoma, 3.24 µM; with U251 CNS, 3.19 µM; in the test on TK-10 renal, 4.84 µM; in the test on HL-60(TB) leukemia it was 4.38 µM; with SF-539 CNS, 3.37 µM. Further, the TGI in the test with A549 NSCLC was determined as 3.02 µM; in the test with SF-295 CNS, 6.55 µM; with HCC-2998 colon, 3.18 µM.

Take `CC1=C(C(=O)Nc2ccccc2C)C(c2ccccc2C)C(C(=O)Nc2ccccc2C)=C(C)N1`: the TGI in the test with OVCAR-3 ovarian was 34.7 µM; with SK-MEL-2 melanoma it was 38.8 µM; in the test on U251 CNS it was 40.3 µM; in the test on TK-10 renal, 64.4 µM; in the test on HL-60(TB) leukemia, 46.5 µM; in the test on SF-539 CNS, more than 10 µM. Moreover, the TGI in the test on A549 NSCLC is more than 100 µM; with SF-295 CNS, 44.2 µM; in the test on HCC-2998 colon, 36.4 µM.

Turning to `O=C(O)c1cc(=O)c2cc(C(=O)c3cccs3)c(Cl)c(Cl)c2o1`, the TGI with OVCAR-3 ovarian, in the test on M14 melanoma, in the test on SK-MEL-2 melanoma, with U251 CNS, in the test with TK-10 renal and in the test with HL-60(TB) leukemia was more than 100 µM in each case. Also, the TGI in the test with A549 NSCLC, in the test with SF-295 CNS and with HCC-2998 colon was more than 100 µM in each case.

With `CCOC(=O)/C=C1\Oc2ccccc2C1(C)O` (stereo unspecified), the TGI in the test on OVCAR-3 ovarian, with M14 melanoma, with SK-MEL-2 melanoma, in the test with U251 CNS, with TK-10 renal and in the test with HL-60(TB) leukemia was more than 100 µM each time. The TGI in the test on A549 NSCLC, in the test with SF-295 CNS and with HCC-2998 colon was more than 100 µM throughout.

For `O=c1[nH]cnc2c1ncn2CCCCO`, the TGI with OVCAR-3 ovarian, in the test on M14 melanoma, with TK-10 renal, with HL-60(TB) leukemia, in the test on SF-539 CNS and in the test on A549 NSCLC was more than 100 µM in each case. Besides, the TGI in the test on SF-295 CNS and in the test with HCC-2998 colon was more than 100 µM in each case.

For the compound `CNC(=O)c1cncc(/C=C/c2c(Cl)cccc2Cl)c1`, the GI50 in the test on OVCAR-3 ovarian is 20.9 µM; with M14 melanoma it was more than 23.4 µM; with U251 CNS it was more than 25 µM; in the test on TK-10 renal, 12.9 µM; in the test on HL-60(TB) leukemia, more than 25 µM; in the test with SF-539 CNS, 9.43 µM. Also, the values for the GI50 with A549 NSCLC, with SF-295 CNS and in the test on HCC-2998 colon were more than 25 µM, more than 12.8 µM and more than 25 µM, respectively. The TGI in the test with OVCAR-3 ovarian, in the test on M14 melanoma, in the test with U251 CNS, with TK-10 renal, with HL-60(TB) leukemia and in the test with SF-539 CNS was more than 25 µM throughout. Also, the TGI in the test with A549 NSCLC, in the test on SF-295 CNS and in the test on HCC-2998 colon was more than 25 µM in each case.

Take `CC(=O)O/N=C/c1cc2c(cc1Br)OCO2`: the TGI in the test with OVCAR-3 ovarian is more than 349 µM; with SK-MEL-2 melanoma, more than 349 µM; in the test with U251 CNS, more than 34.9 µM; in the test on TK-10 renal it was more than 349 µM; in the test on HL-60(TB) leukemia, more than 349 µM; with A549 NSCLC, more than 349 µM. Besides, the TGI with SF-295 CNS and in the test on HCC-2998 colon was more than 349 µM each time.

On to `[O-][n+]1c2cc(CN3CCOCC3)c(CN3CCOCC3)cc2[n+]([O-])c2c(O)cccc21`, for which the TGI is 13 µM in the test on OVCAR-3 ovarian; 13.2 µM with M14 melanoma; 12.1 µM in the test on SK-MEL-2 melanoma; 7.09 µM in the test on U251 CNS; more than 42 µM with TK-10 renal; 10.9 µM in the test with HL-60(TB) leukemia. The TGI with SF-539 CNS was 2.82 µM; with A549 NSCLC it was more than 25.3 µM; with SF-295 CNS it was 2.16 µM.

For the compound `O=C1c2ccn(CCCCN(CCO)CCO)c2C(=O)c2c1c(O)c1ccccc1c2O`, the GI50 was 22.2 µM in the test with OVCAR-3 ovarian; 2.37 µM with M14 melanoma; 6.66 µM in the test on TK-10 renal; 3.17 µM in the test with HL-60(TB) leukemia; 7.88 µM in the test on SF-539 CNS; 2.32 µM in the test with A549 NSCLC. Moreover, the GI50 was 10.8 µM in the test with SF-295 CNS and 3.55 µM in the test with HCC-2998 colon. Also, the TGI with OVCAR-3 ovarian was more than 100 µM; with TK-10 renal, 29.6 µM; in the test on SF-539 CNS it was more than 80.6 µM; with A549 NSCLC, 7.33 µM; in the test with SF-295 CNS, 42 µM; in the test with HCC-2998 colon it was 14.2 µM.

On to `Clc1ccc(/C=C/c2nc(Cl)c(-c3ccc(Cl)cc3)c(Cl)n2)cc1`, for which the TGI with OVCAR-3 ovarian, in the test on M14 melanoma, in the test on SK-MEL-2 melanoma, in the test on U251 CNS, in the test on TK-10 renal and with HL-60(TB) leukemia was more than 100 µM each time. The TGI in the test with SF-539 CNS, in the test on A549 NSCLC and in the test on SF-295 CNS was more than 100 µM each time.
